The source of these data is patent publication US10441562B2, “Aromatic farnesyl compound and application thereof” (INSTITUTE OF MICROBIOLOGY, CHINESE ACADEMY OF SCIENCES, priority 2015, dated 2019).

The target in assay [1] is T1, α-glucosidase (Saccharomyces cerevisiae, UniProt P53341).
T1 construct: purchased Sigma Corporation G5003
As to the kind of experiment: α-glucosidase inhibitory activity test in vitro. It is filed as biochemical. As for the experimental part:
Add 25 μL α-glucosidase water solution (0.2 U/mL) and 175 μL phosphate buffer (50 mM, pH 7.0) into 25 μL different concentration of the above test solutions. The mixed solution is standed for 10 min at room temperature, and then 25 μL 4-nitrophenyl-α-D-glucopyranoside water solution (2.5 mM) is added into the mixed solution. After the solution is incubated at 37 °C for 30 min and centrifuged at 5000 rpm for 5 minutes, 150 uL supernatant is added into 96-well plates and the absorbance is detected at 405 nm.
Blank group: the test solution is replaced by 25 μL phosphate buffer (50 mM, pH 7.0); blank control group: the test solution is replaced by 25 μL phosphate buffer (50 mM, pH 7.0), meanwhile α-glucosidase water solution is replaced by 25 μL phosphate buffer (50 mM, pH 7.0); sample control group: α-glucosidase water solution is replaced by 25 μL phosphate buffer (50 mM, pH 7.0).
(§1) Repeat each of the above experiment groups for 3 times, and then average the results.
IC50=[CL(IH−50)+CH(50−IL)]/(IH−IL) CL: low concentration value; CH: high concentration value; IH: inhibition rate in high concentration; IL: inhibition rate in low concentration

Assay [2] deals with aldose reductase (Homo sapiens, UniProt P15121). As to the kind of experiment: aldose reductase inhibitory activity test in vitro. It counts as biochemical. On the procedure: Experimental procedure: the following reagents are added into 96-well plates in sequence and the mixture ratios of different groups are as followings:
Test group: 10 μL compound solution+25 μL (0.1 mM) NADPH solution+25 μL PBS buffer solution+15 μL aldose reductase diluent
Blank group: 25 μL (0.1 mM) NADPH solution+35 μL PBS buffer solution+15 μL aldose reductase diluent
Background group: 25 μL (0.1 mM) NADPH solution+60 μL PBS buffer solution+15 μL aldose reductase diluent
After adding the reagents, the 96-well plate is standed for 10 min at room temperature to make the compound and the enzyme react completely. Add 25 μL 10 mM D, L glyceraldehyde solution which is used as substrate into the groups except for background group, and incubate the solution at 37 °C for 30 min. Then detect the optical density of each well at 340 nm.

Assay [3] addresses T2, dipeptidyl peptidase-4 (Homo sapiens, UniProt P27487).
T2 construct: purchased
As to the kind of experiment: dipeptidyl peptidase-4 inhibitory activity test in vitro (DPP-4 inhibitor screening kit). It counts as biochemical. An excerpt:
The above compounds are detected by DPP-4 inhibitor screening kit.

In assay [4] the target is T3, protein tyrosine phosphatase 1B (PTP-1B) (Homo sapiens, UniProt P18031).
T3 sequence (P18031 1-435): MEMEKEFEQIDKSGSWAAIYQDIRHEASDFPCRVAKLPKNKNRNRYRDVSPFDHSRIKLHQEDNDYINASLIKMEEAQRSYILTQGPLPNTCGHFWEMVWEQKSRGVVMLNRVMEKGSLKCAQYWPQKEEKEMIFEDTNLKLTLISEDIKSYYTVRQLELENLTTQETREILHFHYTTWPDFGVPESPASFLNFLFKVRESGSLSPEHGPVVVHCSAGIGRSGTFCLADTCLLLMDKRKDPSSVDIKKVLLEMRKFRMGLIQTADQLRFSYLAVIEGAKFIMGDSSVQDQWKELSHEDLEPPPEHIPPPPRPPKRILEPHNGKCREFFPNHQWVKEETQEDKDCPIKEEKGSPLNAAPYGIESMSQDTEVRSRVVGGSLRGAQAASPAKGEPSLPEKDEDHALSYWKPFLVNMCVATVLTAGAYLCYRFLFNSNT
As to the kind of experiment: PTP-1B inhibitory activity test in vitro. It counts as biochemical. On the procedure: Experimental procedure: the following reagents are added into 96-well plates in sequence and the mixture ratios of different groups are as followings: Test group: 50 μL compound solution+50 μL 170 μg/mL PTP-1B solution […] Blank group: 50 μL buffer solution+50 μL 170 μg/mL PTP-1B solution Background group: 50 μL compound solution+50 μL buffer solution After adding the reagents, the 96-well plate is […] for 10 min at room temperature to make the compound and the enzyme react completely. Add 50 μL 1 mM pNPP solution which is used as substrate and incubate the mixed solution at 37 °C for 30 min. Then add 50 μL 3M NaOH into each well of the plate to stop the reaction and the optical density is detected at […].

Assay [5] has as its target T4, HMG-CoA reductase (Homo sapiens, UniProt P04035).
T4 sequence (P04035 426-888 limits assumed): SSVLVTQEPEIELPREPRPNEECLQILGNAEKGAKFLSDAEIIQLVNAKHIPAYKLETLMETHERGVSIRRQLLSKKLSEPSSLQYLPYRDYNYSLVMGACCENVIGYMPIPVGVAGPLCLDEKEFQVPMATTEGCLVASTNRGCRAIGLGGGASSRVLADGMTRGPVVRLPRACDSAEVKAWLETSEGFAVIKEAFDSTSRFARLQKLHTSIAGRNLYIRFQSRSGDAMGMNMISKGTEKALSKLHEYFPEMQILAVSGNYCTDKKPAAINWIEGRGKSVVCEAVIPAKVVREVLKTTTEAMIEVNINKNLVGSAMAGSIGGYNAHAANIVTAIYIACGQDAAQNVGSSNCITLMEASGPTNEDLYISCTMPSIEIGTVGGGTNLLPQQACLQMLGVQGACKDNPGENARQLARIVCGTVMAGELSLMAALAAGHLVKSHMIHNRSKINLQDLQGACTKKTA
As to the kind of experiment: HMG-CoA reductase inhibitory activity test in vitro. It counts as biochemical. On the procedure: Add 25 μL HMG-CoA reductase water solution (0.2 U/mL), 25 μL NADPH water solution (0.2 U/mL) and 24 μL phosphate buffer (50 mM, pH 7.0) into 1 μL different concentration of the above test solution. The mixed solution is standed for 10 min at room temperature, and then 25 μL HMG-CoA is added into the mixed solution. After the solution is incubated at 37∞ for 30 min and centrifuged at 5000 rpm for 5 minutes, 80 uL supernatant is added into 96-well plates and the absorbance is detected at 550 nm.
as §1

In assay [6] the test system is hyperglycemia KK-A^y mice. As to the kind of experiment: blood sugar of hyperglycemia KK-A^y mice. The note with it: metformin 8 g/kg, group 11. It counts as in vivo. On the set-up: blood sugar: unit not given here. As for the experimental part:
(§2) Materials: accurately weigh the 2 compounds S13 and S28 discussed in example 2, and then add 0.5% CMC-Na to make the solution of 5 mg/ml used for activity test. KK-A^y mice are purchased from Chinese Academy of Medical Sciences & Peking Union Medical College Institute of Animal Studies. Experiments are carried out after adapting to the environment (T=20-24° C., constant humidity: 50-60%, 12 hours light exposure (8:00-20:00), soundproof, free feeding and drinking) for 1 week. Glucometer is purchased from Roche.
(§3) Methods: 10 male C57 mice of 6-8 weeks of 20-22 g are used as normal control group (1). Detect the fasting glucose of male KK-A^y mice, which are 6-8 weeks with the weight of 28-32 g, and divide them into different groups according to the blood sugar level and body weight: (2) model control group, (3) which is administered by compound S13 with the dose of 1 mg/kg, (4) which is administered by compound S13 with the dose of 5 mg/kg, (5) which is administered by compound S13 with the dose of 10 mg/kg, (6) which is administered by compound S13 with the dose of 20 mg/kg, (7) which is administered by compound S28 with the dose of 1 mg/kg, (8) which is administered by compound S28 with the dose of 5 mg/kg, (9) which is administered by compound S28 with the dose of 10 mg/kg, (10) which is administered by compound S28 with the dose of 20 mg/kg, (11) which is administered by metformin with the dose of 8 g/kg, (12) which is administered by compound S13 with the dose of 2.5 mg/kg and metformin with the dose of 4 g/kg, (13) which is administered by compound S13 with the dose of 5 mg/kg and metformin with the dose of 4 g/kg, (14) which is administered by compound S28 with the dose of 2.5 mg/kg and metformin with the dose of […], (15) which is administered by compound S28 with the dose of 5 mg/kg and metformin with the dose of […]. Each group has 8 mice, and is administrated successively for 3 weeks. Model control group is given with equal amounts of 0.5% CMC-Na.
1) Effects of drugs on blood sugar: at the first day after administration, the mice are fasted for 2 hours and blood is collected (0 h) to detect the fasting blood sugar. After the compound is given to the mice by intragastric administration for 30 min, blood is collected from tip of tail to detect the blood sugar level.
(§4) 2) Effects on body weight and blood sugar: the body weight of mice are recorded at the 2th, 5th, 8th, 11th, 14th, 17th, 20th day after administration, and blood is collected from tip of tail to detect the blood sugar level (see table 10).

Assay [7] relates to hyperglycemia KK-A^y mice. As to the kind of experiment: glucose tolerance test (OGTT) in hyperglycemia KK-A^y mice. It counts as in vivo. The note with it: OGTT 12th day, glucose 2.0 g/kg oral, metformin 8 g/kg, group 11. As for the experimental part: KK-A^y mice are purchased from Chinese Academy of Medical Sciences & Peking Union Medical College Institute of Animal Studies. Experiments are carried out after adapting to the environment (T=20-24° C., constant humidity: 50-60%, 12 hours light exposure (8:00-20:00), soundproof, free feeding and drinking) for 1 week. Glucometer is purchased from Roche.
Each group has 8 mice, and is administrated successively for 3 weeks. Model control group is given with equal amounts of 0.5% CMC-Na.
3) Glucose tolerance test (OGTT): glucose tolerance is detected at the 12th day after administration. The mice are fasted for 12 hours and blood is collected (0 h). After being given with glucose (2.0 g/kg) by oral administration, blood is collected from tip of tail to detect the blood sugar level after 30 min, 60 min and 120 min respectively (see table 11).

A short description of assay [8]: body weight of hyperglycemia KK-A^y mice. It is filed as in vivo. Particulars: metformin 8 g/kg, group 11. On the procedure: as §2, §3, §4
Assay [9] concerns hyperglycemia KK-A^y mice. As to the kind of experiment: blood lipid and liver function of hyperglycemia KK-A^y mice. Particulars: 3 weeks, metformin 8 g/kg, group 11. It is filed as in vivo. On the procedure: as §2, §3
4) After the last administration, the mice are executed under anesthesia, and blood is taken to be centrifuged at 3000 rpm in 4[…]. Serum total cholesterol, low density lipoprotein and triglyceride TG are detected.

The mark [10] stands for this setting: read-out: α-glucosidase inhibitory activity (IC50).

Like-named read-outs stand apart in the source and are kept apart here. Marks after values point to notes of the source that are not given here.

T2 sequence (P27487 whole entry, species assumed): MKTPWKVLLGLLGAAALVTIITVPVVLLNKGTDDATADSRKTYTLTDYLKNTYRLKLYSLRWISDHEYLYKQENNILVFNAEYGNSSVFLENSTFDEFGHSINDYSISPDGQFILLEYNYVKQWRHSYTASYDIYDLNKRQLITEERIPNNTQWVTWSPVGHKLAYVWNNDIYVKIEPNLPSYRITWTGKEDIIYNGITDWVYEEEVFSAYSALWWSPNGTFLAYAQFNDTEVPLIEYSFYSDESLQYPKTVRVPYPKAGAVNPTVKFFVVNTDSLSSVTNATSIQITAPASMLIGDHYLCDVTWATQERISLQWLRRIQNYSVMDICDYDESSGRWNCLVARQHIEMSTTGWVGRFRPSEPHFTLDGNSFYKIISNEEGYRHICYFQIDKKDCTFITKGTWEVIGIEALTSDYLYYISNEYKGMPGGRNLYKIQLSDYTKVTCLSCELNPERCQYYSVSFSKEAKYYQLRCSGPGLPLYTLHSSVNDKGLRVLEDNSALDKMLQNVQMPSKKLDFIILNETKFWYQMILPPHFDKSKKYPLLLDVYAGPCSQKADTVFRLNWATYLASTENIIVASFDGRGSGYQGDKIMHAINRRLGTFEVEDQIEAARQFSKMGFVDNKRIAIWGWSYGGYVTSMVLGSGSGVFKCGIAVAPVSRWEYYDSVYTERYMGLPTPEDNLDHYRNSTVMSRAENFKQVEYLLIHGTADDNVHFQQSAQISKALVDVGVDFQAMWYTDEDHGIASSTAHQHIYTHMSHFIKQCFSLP
T1 sequence (P53341 whole entry): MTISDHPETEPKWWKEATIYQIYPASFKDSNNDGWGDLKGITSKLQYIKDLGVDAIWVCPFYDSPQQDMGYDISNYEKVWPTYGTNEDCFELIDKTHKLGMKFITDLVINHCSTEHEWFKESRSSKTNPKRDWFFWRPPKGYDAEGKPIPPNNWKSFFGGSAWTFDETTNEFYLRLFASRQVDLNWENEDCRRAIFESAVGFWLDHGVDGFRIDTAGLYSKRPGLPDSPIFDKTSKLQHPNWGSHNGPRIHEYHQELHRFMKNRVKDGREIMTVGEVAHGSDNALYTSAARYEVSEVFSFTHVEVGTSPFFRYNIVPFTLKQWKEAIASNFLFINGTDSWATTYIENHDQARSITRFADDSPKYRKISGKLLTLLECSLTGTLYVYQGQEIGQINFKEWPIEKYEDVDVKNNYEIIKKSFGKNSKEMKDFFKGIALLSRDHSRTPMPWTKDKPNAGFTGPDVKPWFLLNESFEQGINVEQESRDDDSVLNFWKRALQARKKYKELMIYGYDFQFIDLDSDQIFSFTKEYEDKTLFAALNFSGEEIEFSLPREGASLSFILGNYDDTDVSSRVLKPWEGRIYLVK

The term IC50 denotes the concentration that gives 50% inhibition. In the case of `C/C(C=O)=C\CC/C(C)=C/CC/C(=C/Cc1cc(O)ccc1O)C(=O)O` [S35, (2Z,5E,9E)-2-(2-(2,5-dihydroxyphenyl)ethylidene)-6,10-dimethyl-11-oxo undeca-5,9-dienoic acid], the half-maximal inhibitory concentration (IC50) in assay [1] came to 12.3 µM; in [2], 5.6 µM; in [3], 7.8 µM; in assay [4], 12.3 µM; in assay [5], 20.7 µM.

Take `CC(C)=CCC/C(C)=C/CCC(CC(=O)c1cc(O)ccc1O)C(=O)O` (centres unmarked) [S36, (E)-2-(2-(2,5-dihydroxyphenyl)-2-oxoethyl)-6,10-dimethylundeca-5,9-dienoic acid]: the concentration for half-maximal inhibition (IC50) stood at 3.2 µM in [1]; 6.3 µM in assay [2]; 21.8 µM in assay [3]; 11.4 µM in assay [4]; 4.2 µM in assay [5].

`CC(C)=CCCC1=C[C@H](c2cc(O)ccc2O)OC1=O` [S37, (R)-5-(2,5-dihydroxyphenyl)-3-(4-methylpent-3-en-1-yl)furan-2(5H)-one]: the IC50 in assay [1] (setting [10]) was 1.32 µM; in assay [2] it was 12.6 µM; in assay [3], 15.4 µM; in [4] it was 12.3 µM; in assay [5], 65.2 µM.

`CC(C)=CCCC1=C[C@@H](c2cc(O)ccc2O)OC1=O` [S38, (S)-5-(2,5-dihydroxyphenyl)-3-(4-methylpent-3-en-1-yl)furan-2(5H)-one]: the IC50 in [1] (setting [10]) was 1.23 µM; in [2], 67.5 µM; in [3], 12.9 µM; in assay [4] it was 9.8 µM; in assay [5], 12.5 µM.

Turning to `CN(C)C(=N)N=C(N)N` [metformin, reference compound], the “blood sugar at the 1st day, 0” value in [6] (1st day 0 h) was 14.9. Besides, the “blood sugar at the 1st day, 30 min” value in assay [6] (1st day 30 min after intragastric administration) worked out at 9.85. The blood sugar in [6] (2st day) amounted to 13.05; in assay [6] (5st day), 13.9; in assay [6] (8st day) it was 13.8; in assay [6] (11st day), 13.5; in [6] (14st day), 13.7; in [6] (17st day) it was 13.5. Besides, in assay [6] (20st day), the blood sugar came to 13.24. The “glucose tolerance, blood sugar 0 min” value in assay [7] (0 min) was 6.5**. Besides, in assay [7] (30 min), the “glucose tolerance, blood sugar 30 min” value is recorded as 12.8**. Besides, the “glucose tolerance, blood sugar 60 min” value in [7] (60 min) is reported as 10.47**. Besides, in [7] (120 min), the “glucose tolerance, blood sugar 120 min” value is given as 7.41**. The Body weight in assay [8] (2st day) is listed as 30.7 g; in [8] (5st day), 30.53 g; in assay [8] (8st day), 30.8 g; in [8] (11st day), 30.6 g; in [8] (14st day), 30.7 g; in assay [8] (17st day), 30.8 g. The compound also came in with a Body weight in [8] (20st day) of 30.5 g. The ALT in [9] was determined as 89.6 U/L. The compound further displayed an AST in assay [9] of 137.5 U/L. The same compound returned an HDL-C in assay [9] of 23.1 mg/dL. This compound registered an LDL-C in assay [9] of 72 mg/dL. The SOD in assay [9] is listed as 3.7 U/L. The TC in assay [9] is given as 176* mg/dL. The TG in [9] is given as 578 mg/dL.
